Data taken from paper PMC11599207, “Identification of IspD as a novel target for tuberculosis treatment using compound M6” (Frontiers in Microbiology, 2024).

Biological target: T1, IspD (2-C-methyl-D-erythritol 4-phosphate cytidylyltransferase) (Mycolicibacterium smegmatis, UniProt A0R560)
T1 construct: recombinant IspD from pET28a-ispD, His trap purified, approximately 26 kDa
T1 sequence (A0R560 1-222): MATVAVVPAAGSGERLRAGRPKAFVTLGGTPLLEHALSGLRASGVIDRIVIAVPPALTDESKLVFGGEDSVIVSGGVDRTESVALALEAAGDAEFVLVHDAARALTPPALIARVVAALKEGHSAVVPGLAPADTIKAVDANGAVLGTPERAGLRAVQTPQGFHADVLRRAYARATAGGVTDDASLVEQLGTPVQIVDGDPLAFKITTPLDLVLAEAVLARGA
Assay: ammonium molybdate pyrophosphate absorbance assay; double-reciprocal kinetics
Assay type: biochemical

SMILES	ammonium molybdate pyrophosphate absorbance assay; double-reciprocal kinetics
Nc1ccn([C@@H]2O[C@H](COP(=O)(O)OP(=O)(O)OP(=O)(O)O)[C@@H](O)[C@H]2O)c(=O)n1 [CTP]	M6 acts as a non-competitive inhibitor of the substrate CTP (Figure 3D)
C[C@](O)(CO)[C@H](O)COP(=O)(O)O [MEP, 2-C-methyl-D-erythritol 4-phosphate]	indicating that M6 acts as a non-competitive inhibitor of the substrate MEP
